# In patent US20040214805A1, “Method and compositions for treating pulmonary diseases” (SmithKline Beecham Corporation, priority 1999, published 2004):
# Where two headings read alike, the source gives them in different places.
# Tests used:
# asthma patients [1] = settings: comparators, cited from earlier work
# [2] = tested on: patients with mild/moderate asthma on ≧800 mcg of beclomethasone; assay: Cilomalast/high dose inhaled corticosteroid (ICS) study; assay type: in vivo, human
# Procedure: R, DB, PC, DR in patients with mild/moderate asthma on ≧800 mcg of beclomethasone
# cilomalast® doses were 5, 10 and 15 mg twice daily for 4 weeks.
# Primary endpoint: trough clinic FEV1.
# Secondary endpoints: morning PEFR, symptoms, PEFR variability, evening PEFR, clinic PEFR, FEF25-75, FEF75, rescue medication used.
# asthma patients [3] = assay: Allergen challenge studies (LAR); assay type: in vivo, human; settings: Ariflo 15 mg bd
# Excerpt: Legend: Data on cilomalast was taken from the protocol analysis in asthma patients on <652 mcg of ICS. Data on montelukast (MT), budesonide (BDP) and both was taken from a single study in the Singulair SBA that examined the effect of Singulair relative to inhaled […] corticosteroids.
# [4] = tested on: patients with mild/moderate asthma; assay: Cilomalast/low dose inhaled corticosteroid (ICS) dose-ranging study; assay type: in vivo, human
# Excerpt: This was a phase IIB, randomised, placebo-controlled, dose-ranging study with a one-week single-blind placebo run-in, a 6-week double-blind treatment phase and a one-week follow-up phase in patients with mild/moderate asthma.
# Study population: Male or female patients aged between 18 and 70 years, with mild to moderate asthma, who were not adequately controlled on low doses of inhaled corticosteroids (no greater than 500 mcg beclomethasone dipropionate/day or equivalent) were eligible. Patients were required to have a screening FEV1 of >50% and <80% predicted for height, age, sex and race and a 12% or greater reversibility after beta-2 agonist administration. Patients had to have a summary symptom score of 6 or more on 4 out of 7 days preceding the baseline visit to be randomised. The sample size was 300 evaluable patients.
# cilomalast was dosed at 5 mg, 10 mg 15 mg twice daily for 6 weeks.
# Subjects were on a median of 500 mcg of beclometbasone equivalent although the mean dose of ICS was 652 mcg.
# Primary endpoint: change from baseline to endpoint in trough clinic expiratory volume in 1 second (FEV1), changes in clinic FEV1 every week and over a 4 hour period following first dose of double-blind medication.
# The primary efficacy measure was defined as the change from baseline to endpoint in trough clinic forced expiratory volume in 1 second (FEV1). Changes in clinic FEV1 were also analysed at each week of the double-blind treatment phase and over a 4-hour period immediately following the first dose of double-blind medication. Secondary efficacy variables were use of inhaled/nebulised beta-2 agonist and overnight asthma symptoms. Tertiary efficacy variables were forced vital capacity (FVC), clinic peak expiratory flow rate (PEFR), forced expiratory flow at 25-75% (FEF25-75) and 75% (FEF75), domiciliary PEFR variability, domiciliary PEFR (morning and evening), summary symptom score (a composite score of overnight, morning and overall daytime asthma), morning asthma, overall daytime asthma, inhaled corticosteroid use, cough, wheeze, breathlessness/chest tightness, asthma exacerbation rates and global assessments by the physician and the patient.
# [5] = developed as an antidepressant; e.g. pyrosis, nausea and emesis; cited from earlier work
smiles,measurement,setting,value
O=C(Nc1cccc2c(=O)cc(-c3nnn[nH]3)oc12)c1ccc(OCCCCc2ccccc2)cc1 [Ultair],% Max fall LAR (treatment effect),asthma patients [1]; ICS = 800 mcg budesonide,10.7%
same,% Protection max fall LAR,asthma patients [1]; ICS = 800 mcg budesonide,30.8%
same,% AUC of LAR (treatment effect),asthma patients [1],42.4%
same,% Protection AUC LAR,asthma patients [1],42.6%
"COc1ccc([C@]2(C#N)CC[C@@H](C(=O)O)CC2)cc1OC1CCCC1 [cilomalast, cis 4-cyano-4-(3-cyclopentyloxy-4-methoxyphenyl)cyclohexan-1-carboxylic acid]","4 hour clinic FEV1, clinic FVC, PEFR",[2]; 10 mg BID,numerically superior results
same,"improvement in trough FEV1, repeated measures analysis, patients on <800 mcg of ICS excluded","[2]; 10 mg BID, p=0.009",0.16 L
same,trough concentrations,"[2]; 5, 10, 15 mg twice daily",dose proportional
same,dose ordering for the primary endpoint (trough clinic FEV1),"[2]; 5, 10, 15 mg twice daily, 4 weeks",No dose ordering
same,"change in clinic trough FEV1, ITT analysis","[2]; any dose group (5, 10, 15 mg twice daily, 4 weeks)",No statistically significant change
same,% AUC of LAR (treatment effect),asthma patients [3],3.5%
same,% Max fall LAR (treatment effect),asthma patients [3],1.3%
same,% Protection AUC LAR,asthma patients [3],NONE
same,% Protection max fall LAR,asthma patients [3],NONE
same,"4 hour FEV1, domiciliary PEFR, FEF25-75, physician and patient global assessment scores",[4]; 15 mg BID,Corroborating support
same,"improvement in trough FEV1 at endpoint, ITT analysis, vs placebo","[4]; 15 mg BID, 6 weeks, on low dose ICS, p=0.062, no statistical improvement",0.16 L
same,"improvement in trough FEV1, excluding patients on ICS doses >500 mcg of beclamethasone","[4]; 15 mg BID, p=0.033, significant",0.21 L
same,"dose ordering of response for trough FEV1 at endpoint, ITT analysis","[4]; 5, 10, 15 mg twice daily for 6 weeks",dose-ordered
same,comparison with Singulair when added to low dose ICS,[4]; placebo group also improved in the cilomalast study,outperformed Singulair
COc1ccc(C2CNC(=O)C2)cc1OC1CCCC1 (stereo not shown) [rolipram],side effects in clinical studies,[5],produces gastrointestinal effects
